From patent publication US5326788A, “Biological fluid purification system” (priority 1992, dated 1994)

Key:
[1] = system: HIV-2; assay: Syncytia assay, HUT78 cells infected with ROD-2 isolate co-cultured with H9 cells; type: cell-based; details: 24 hours
Procedure: In order to assess the effects of Hy and Ps on the ability of HIV to form syncytia, the following experiments were performed. For the analysis of HIV-1, an entry syncytia assay was performed by co-culturing H9 cells (described in Popovic, M. et al. Science 224: 497-500, 1984) infected with the IIIb isolate of HIV with uninfected Supt-1 cells (Walker, B. D. et al. Proc. Nat. Acad. Sci. (USA) 84: 8120-8124, 1987) as the target cell. HIV-2 was tested using HUT78 cells (obtained from the National Institute of Health by reference to Depository Catalog, Reagent Program, Bethesda, Md.) infected with the ROD-2 isolate of HIV-2 co-cultured with uninfected H9 target cells. The infected cells were plated in 96 well plates (10^4 cells per well in RPM1 1640 medium with 10% fetal calf serum) and incubated with or without dilutions of Ps or Hy for 30 minutes at 37° C. 1×10^5 target cells were then added per well and the number of syncytia were quantitatively and qualitatively determined after 24 hours.

[2] = system: HIV; assay: Inactivation of HIV from blood of sero-positive patient, reverse transcriptase activity after culture with H9 cells; type: cell-based, Human Immunodeficiency Virus (HIV)
Procedure: In order to show the effectiveness of the compounds of the present invention in the inactivation of HIV, blood was obtained from an HIV sero-positive patient and treated with hypericin and pseudohypericin at various concentrations for 1 hour at 37° C. and incubated with uninfected H9 cells in culture. Thereafter, reverse transcriptase enzymatic activity was determined as disclosed in U.S. patent application Ser. Nos. 084,008 and 172,064 filed Aug. 10, 1987 and Mar. 23, 1988, respectively.
(§1) In FIG. 1, open squares represent hypericin-treated and pluses represent pseudohypericin treated HIV. […] Inactivation of the reverse transcriptase activity of the virions was not a result of a direct inhibition of reverse transcriptase activity per se, as incubation of either compound directly with purified reverse transcriptase from either avian myeloblastosis virus or murine leukemia virus had no effect on enzyme activity. Furthermore, aliquots of HIV derived from these H9 cell cultures lost the ability to replicate in culture when exposed to as little as 0.77 micrograms/ml of hypericin.

[3] = system: HIV; assay: Incubation time of free HIV virus with hypericin needed to inhibit infectivity; type: cell-based, Human Immunodeficiency Virus (HIV)
[4] = system: HIV; assay: Infectivity (ability to replicate in culture) of HIV derived from H9 cell cultures; type: cell-based, Human Immunodeficiency Virus (HIV)
Procedure: FIG. 2 is a graph showing the effect of hypericin and pseudohypericin on the infectivity of HIV cultured from an AIDS patient.
as §1

## Cc1cc(O)c2c(=O)c3c(O)cc(O)c4c5c(O)cc(O)c6c(=O)c7c(O)cc(C)c8c1c2c(c34)c(c78)c65 [hypericin]
[1]; 7 nanograms
  syncytia score (number 0-4, size S/M/L): 4 L
[1]; 14 nanograms
  syncytia score (number 0-4, size S/M/L): 4 L
[1]; 28 nanograms
  syncytia score (number 0-4, size S/M/L): 4 L
[1]; 56 nanograms
  syncytia score (number 0-4, size S/M/L): 3 M
[1]; 112 nanograms
  syncytia score (number 0-4, size S/M/L): 1S
[1]; 225 nanograms
  syncytia score (number 0-4, size S/M/L): 0
[1]; 450 nanograms
  syncytia score (number 0-4, size S/M/L): 0
[1]; 900 nanograms
  syncytia score (number 0-4, size S/M/L): 0
[1]; 1800 nanograms
  syncytia score (number 0-4, size S/M/L): 0
[2]; 1 hour at 37° C., H9 cells
  concentration giving complete inactivation of HIV (no reverse transcriptase detected): 2.5 micrograms/ml
[2]; Human immunodeficiency virus 1, H9, 1 h, read-out: concentration giving complete inactivation of HIV (no reverse transcriptase detected), 1 hour at 37° C., H9 cells
  IC100: > 2.5 µg/mL
[3]; 10 and 5 minutes incubation
  inhibition of virus infectivity: complete
[3]; only the time to add compound and centrifuge
  inhibition of virus infectivity: significant inhibition
[4]
  concentration abolishing infectivity of HIV (loss of ability to replicate in culture): 0.77 micrograms/ml
[4]; Human immunodeficiency virus 1, read-out: concentration abolishing infectivity of HIV (loss of ability to replicate in culture)
  minimal effective concentration: 0.77 µg/mL
